Reference: the supplement of paper PMC10307832

What was measured:
Experiment in all cases: relative viability (nuclei count vs DMSO), 5 days (fraction); higher = more cells survive
XMD8-85 + Foretinib = compound: CN1CCN(CC1)C2=CC(=C(C=C2)NC3=NC=C4C(=N3)N(C5=CC=CC=C5C(=O)N4C)C)OC [XMD8-85] + COc1cc2c(Oc3ccc(NC(=O)C4(C(=O)Nc5ccc(F)cc5)CC4)cc3F)ccnc2cc1OCCCN1CCOCC1 [Foretinib] (partner 0.25 µM)
Method in brief: (§1)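 Relative viability equals treated-well nuclei counts divided by vehicle-well nuclei counts. Counts came from 4× images of lung cancer cell lines grown in 1536-well plates for 5 days after pin-tool dosing on the day after seeding. Dosing used one drug alone or a fixed anchor-drug dose plus five library-drug doses (not always all listed) in √10 steps, and values are medians of duplicate plates.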

XMD8-85 + Lapatinib = compound: CN1CCN(CC1)C2=CC(=C(C=C2)NC3=NC=C4C(=N3)N(C5=CC=CC=C5C(=O)N4C)C)OC [XMD8-85] + CS(=O)(=O)CCNCc1ccc(-c2ccc3ncnc(Nc4ccc(OCc5cccc(F)c5)c(Cl)c4)c3c2)o1 [Lapatinib] (partner 2 µM)
Method in brief: as §1

4EGI-1 + OSI-027 = compound: O=C(O)C(Cc1ccccc1[N+](=O)[O-])=NNc1nc(-c2ccc(Cl)c(Cl)c2)cs1 (mixture of isomers) [4EGI-1] + COc1cccc2cc(-c3nc([C@H]4CC[C@H](C(=O)O)CC4)n4ncnc(N)c34)[nH]c12 [OSI-027] (partner 0.5 µM)
Method in brief: as §1

4EGI-1 + AZD7762 = compound: O=C(O)C(Cc1ccccc1[N+](=O)[O-])=NNc1nc(-c2ccc(Cl)c(Cl)c2)cs1 (mixture of isomers) [4EGI-1] + NC(=O)Nc1cc(-c2cccc(F)c2)sc1C(=O)N[C@H]1CCCNC1 [AZD7762] (partner 0.2 µM)
Method in brief: as §1

| Cell Line | relative viability (XMD8-85 + Foretinib; first compound 0.08 µM) | relative viability (XMD8-85 + Foretinib; first compound 0.253 µM) | relative viability (XMD8-85 + Foretinib; first compound 0.8 µM) | relative viability (XMD8-85 + Foretinib; first compound 2.53 µM) | relative viability (XMD8-85 + Foretinib; first compound 8 µM) | relative viability (XMD8-85 + Lapatinib; first compound 0.08 µM) | relative viability (XMD8-85 + Lapatinib; first compound 0.253 µM) | relative viability (XMD8-85 + Lapatinib; first compound 0.8 µM) | relative viability (XMD8-85 + Lapatinib; first compound 2.53 µM) | relative viability (XMD8-85 + Lapatinib; first compound 8 µM) | relative viability (4EGI-1 + OSI-027; first compound 0.5 µM) | relative viability (4EGI-1 + OSI-027; first compound 1.581 µM) | relative viability (4EGI-1 + OSI-027; first compound 5 µM) | relative viability (4EGI-1 + OSI-027; first compound 15.81 µM) | relative viability (4EGI-1 + OSI-027; first compound 50 µM) | relative viability (4EGI-1 + AZD7762; first compound 0.5 µM) | relative viability (4EGI-1 + AZD7762; first compound 5 µM) | relative viability (4EGI-1 + AZD7762; first compound 15.81 µM) | relative viability (4EGI-1 + AZD7762; first compound 50 µM) | relative viability (4EGI-1 + AZD7762; first compound 1.581 µM) |
| --- | --- | --- | --- | --- | --- | --- | --- | --- | --- | --- | --- | --- | --- | --- | --- | --- | --- | --- | --- | --- |
| NCI-H520 | 0.798 | 0.729 | 0.895 | 0.741 | 0.484 | 0.825 | 0.749 | 1.03 | 0.906 | 0.756 | 0.262 | 0.325 | 0.314 | 0.345 | 0.179 | – | – | – | – | – |
| NCI-H647 | 1.37 | 1.3 | 1.34 | 1.04 | 0.865 | 1.08 | 1.09 | 1.24 | 1.48 | 0.638 | 0.7 | – | 0.739 | 0.671 | 0.399 | 0.375 | 0.643 | 0.192 | 0.101 | – |
| 201T | 1.13 | 1.24 | 1.13 | 0.733 | 0.703 | 1.07 | 1.01 | 1.02 | 1 | 0.828 | 0.791 | 0.622 | 0.824 | 0.704 | 0.656 | 0.797 | 0.736 | 0.619 | 0.495 | 0.514 |
| COR-L 105 | 1.21 | 1.14 | 1.08 | 0.672 | 0.387 | 0.366 | 0.341 | 0.407 | 0.342 | 0.348 | 0.937 | 0.572 | 0.718 | 0.434 | 0.535 | – | – | – | – | – |
| IA-LM | 1.07 | 1.11 | 1.24 | 0.964 | 0.292 | 0.847 | 0.59 | 0.611 | 0.455 | 0.16 | – | – | – | – | – | – | – | – | – | – |
| LCLC-97TM1 | 0.934 | 0.95 | 0.959 | 1.01 | 1 | 0.703 | 0.931 | 0.859 | 1.02 | 1.15 | 0.464 | 0.258 | 0.527 | 0.482 | 0.478 | 0.242 | 0.362 | 0.41 | 0.0881 | – |
| NCI-H1944 | – | 1.04 | 0.898 | 0.836 | 0.571 | 0.784 | 0.733 | 0.897 | 1.02 | 0.702 | 0.427 | – | 0.392 | 0.307 | 0.303 | 0.626 | 0.604 | 0.453 | 0.212 | – |
| EPLC-272H | 0.619 | 0.717 | 0.751 | 0.47 | 0.436 | – | 0.824 | 1.02 | 0.905 | 0.566 | 0.317 | – | 0.285 | 0.274 | 0.172 | 0.264 | 0.239 | 0.151 | 0.0667 | – |
| NCI-H2342 | 0.993 | 0.938 | 1.15 | 0.971 | 0.946 | – | – | – | – | – | 0.596 | 0.644 | 0.62 | 0.625 | 0.517 | 0.441 | 0.501 | 0.559 | 0.308 | 0.477 |
| NCI-H1648 | – | – | – | – | – | – | – | – | – | – | 0.254 | 0.26 | 0.252 | 0.302 | 0.213 | 0.662 | 0.707 | 0.602 | 0.517 | 0.674 |
| NCI-H1437 | 1.3 | 1.28 | 1.32 | 1.08 | 0.867 | 0.785 | 0.888 | 0.804 | 0.792 | 0.407 | 0.945 | 0.853 | 0.886 | 0.743 | 0.256 | 1.09 | 1.09 | 0.525 | 0.315 | 1.01 |
| LU99A | 0.768 | – | 0.761 | 0.854 | 0.597 | 1.11 | 0.96 | 1.05 | 1.06 | 0.882 | 0.306 | 0.275 | 0.269 | 0.274 | 0.288 | 0.546 | 0.323 | 0.237 | 0.141 | 0.235 |
| NCI-H1993 | 0.742 | 0.894 | 0.806 | 0.706 | 0.61 | 0.662 | 0.755 | 0.93 | 0.819 | 0.774 | 0.495 | 0.528 | 0.627 | 0.611 | 0.577 | 0.904 | 0.937 | 0.504 | 0.356 | 0.689 |
| NCI-H838 | 0.941 | 1 | 1.08 | 0.91 | 0.569 | 0.942 | 1.05 | 1.09 | 0.967 | 0.45 | 0.419 | – | 0.403 | 0.362 | 0.218 | 1.05 | 0.904 | 0.647 | 0.617 | – |
| NCI-H322M | 0.733 | 0.856 | 1.01 | 0.8 | 0.631 | 0.507 | 0.569 | 0.593 | 0.585 | 0.522 | 0.63 | – | 0.546 | 0.532 | 0.223 | 0.604 | 0.563 | 0.417 | 0.36 | – |
| NCI-H3122 | 1.04 | – | 1.07 | 1.04 | 0.947 | 1.12 | 1.01 | 1.04 | 1.09 | 0.965 | 1.27 | – | 1.04 | 0.862 | 0.235 | 1.01 | 0.957 | 0.926 | 0.48 | 0.972 |
| NCI-H1703 | 0.353 | 0.363 | 0.33 | 0.374 | 0.35 | – | 1.22 | 1.25 | 1.26 | 0.841 | – | – | – | – | – | 0.121 | 0.147 | 0.12 | 0.119 | 0.131 |
| HCC-15 | 1.05 | 1.01 | 0.963 | 1.05 | 0.766 | 0.851 | 0.879 | 0.863 | 0.948 | 0.747 | 0.692 | – | 0.734 | 0.557 | 0.19 | 1.21 | 1.26 | 1.17 | 1.28 | 1.12 |
